From US7935687B2, “Methods for treating spinal muscular atrophy using tetracycline compounds” (Paratek Pharmaceuticals, Inc., priority 2007, dated 2011)

Tests used:
S. aureus (SA RN450) = assay: Antibacterial MIC, gram positive; assay type: cell-based; conditions: CLSI methodology, 35° C., 18-24 hours
E. coli (EC D1-209) = assay: Antibacterial MIC, gram negative; assay type: cell-based; conditions: CLSI methodology, 35° C., 18-24 hours

SMILES | MIC Gram Positive (SA RN450) (S. aureus (SA RN450)) | MIC Gram Negative (EC D1-209) (E. coli (EC D1-209))
CN(C)CCCNC(=O)c1ccc(-c2ccc(O)c3c2CC2CC4C(N(C)C)C(O)=C(C(N)=O)C(=O)C4(O)C(O)=C2C3=O)cc1 (centres unmarked) [AA] | ** (modest antibacterial activity (between about 4 and 8 μg/mL)) | * (weak antibacterial activity (greater than about 8 μg/mL))
CN(C)CCNC(=O)c1ccc(-c2ccc(O)c3c2CC2CC4C(N(C)C)C(O)=C(C(N)=O)C(=O)C4(O)C(O)=C2C3=O)cc1 (centres unmarked) [AD] | *** (Good antibacterial activity (e.g., less than about 4 μg/mL)) | * (weak antibacterial activity (greater than about 8 μg/mL))
CN(C)C1C(O)=C(C(N)=O)C(=O)C2(O)C(O)=C3C(=O)c4c(O)ccc(-c5cccc(C(N)=O)c5)c4CC3CC12 (centres unmarked) [AE] | *** (Good antibacterial activity (e.g., less than about 4 μg/mL)) | * (weak antibacterial activity (greater than about 8 μg/mL))
CC(=O)Nc1cccc(-c2ccc(O)c3c2CC2CC4C(N(C)C)C(O)=C(C(N)=O)C(=O)C4(O)C(O)=C2C3=O)c1 (centres unmarked) [AO] | *** (Good antibacterial activity (e.g., less than about 4 μg/mL)) | * (weak antibacterial activity (greater than about 8 μg/mL))
CN(C)CCNC(=O)c1cccc(-c2ccc(O)c3c2CC2CC4C(N(C)C)C(O)=C(C(N)=O)C(=O)C4(O)C(O)=C2C3=O)c1F (centres unmarked) [AP] | *** (Good antibacterial activity (e.g., less than about 4 μg/mL)) | * (weak antibacterial activity (greater than about 8 μg/mL))
CN(C)C1C(O)=C(C(N)=O)C(=O)C2(O)C(O)=C3C(=O)c4c(O)ccc(-c5ccccc5)c4CC3CC12 (centres unmarked) [AQ] | *** (Good antibacterial activity (e.g., less than about 4 μg/mL)) | ** (modest antibacterial activity (between about 4 and 8 μg/mL))
COC(=O)c1ccc(-c2ccc(O)c3c2CC2CC4C(N(C)C)C(O)=C(C(N)=O)C(=O)C4(O)C(O)=C2C3=O)cc1 (centres unmarked) [AR] | *** (Good antibacterial activity (e.g., less than about 4 μg/mL)) | * (weak antibacterial activity (greater than about 8 μg/mL))
CC(=O)c1cccc(-c2ccc(O)c3c2CC2CC4C(N(C)C)C(O)=C(C(N)=O)C(=O)C4(O)C(O)=C2C3=O)c1 (centres unmarked) [AS] | *** (Good antibacterial activity (e.g., less than about 4 μg/mL)) | * (weak antibacterial activity (greater than about 8 μg/mL))
COc1ccc(CN(C)C)cc1-c1ccc(O)c2c1CC1CC3C(N(C)C)C(O)=C(C(N)=O)C(=O)C3(O)C(O)=C1C2=O (centres unmarked) [AT] | *** (Good antibacterial activity (e.g., less than about 4 μg/mL)) | *** (Good antibacterial activity (e.g., less than about 4 μg/mL))
CC(C)OC(=O)c1cccc(-c2ccc(O)c3c2CC2CC4C(N(C)C)C(O)=C(C(N)=O)C(=O)C4(O)C(O)=C2C3=O)c1 (centres unmarked) [AU] | *** (Good antibacterial activity (e.g., less than about 4 μg/mL)) | * (weak antibacterial activity (greater than about 8 μg/mL))
CN(C)CCC(=O)c1ccc(O)c2c1CC1CC3C(N(C)C)C(O)=C(C(N)=O)C(=O)C3(O)C(O)=C1C2=O (centres unmarked) [AV] | *** (Good antibacterial activity (e.g., less than about 4 μg/mL)) | * (weak antibacterial activity (greater than about 8 μg/mL))
CN(C)c1cc(-c2ccc(CN3CCN(CCO)CC3)o2)c(O)c2c1C[C@H]1C[C@H]3[C@H](N(C)C)C(O)=C(C(N)=O)C(=O)[C@@]3(O)C(O)=C1C2=O [BA] | *** (Good antibacterial activity (e.g., less than about 4 μg/mL)) | * (weak antibacterial activity (greater than about 8 μg/mL))
CN1CCN(CC(=O)c2ccc(O)c3c2CC2CC4C(N(C)C)C(O)=C(C(N)=O)C(=O)C4(O)C(O)=C2C3=O)CC1 (centres unmarked) [BB] | *** (Good antibacterial activity (e.g., less than about 4 μg/mL)) | * (weak antibacterial activity (greater than about 8 μg/mL))
